Test results as given in US20070049564A1 (Wyeth, priority 2005, published 2007).
Values after ≈ are worked out from the molar mass of the structure shown. Read-outs that look alike come from different tables or passages of the source.

Columns and labels:
[1] = system: E. faecium GC 2243; test: MIC, broth microdilution; details: Enterococcus faecium, GC2243, E. faecium GC 2243
[2] = system: E. faecalis GC 4555; test: MIC, broth microdilution; details: Enterococcus faecalis, GC4555, E. faecalis GC 4555
Experimental: Antimicrobial susceptibility testing. The in vitro activities of the antibiotics are determined by the broth microdilution method as recommended by the National Committee for Clinical Laboratory Standards (NCCLS) (1). Mueller-Hinton II broth (MHBII)(BBL Cockeysville, Md.) is the medium employed in the testing procedures. Microtiter plates containing serial dilutions of each antimicrobial agent are inoculated with each organism to yield the appropriate density (10^5 CFU/ml) in a 100 μl final volume. The plates are incubated for 18-22 hours at 35° C. in ambient air.
Representative compounds were first incubated in mouse serum for an hour prior to the in vitro testing against a panel of selected gram-positive and gram-negative bacteria strains. All compounds were also pre-incubated in water for an hour prior to testing as control. Representative compounds of Formula I were incubated in human serum prior to MIC determination.

[3] = system: S. aureus GC 2216; test: MIC, broth microdilution; details: Staphylococcus aureus, GC2216, S. aureus GC 2216
[4] = system: S. aureus GC 1131; test: MIC, broth microdilution; details: Staphylococcus aureus, GC1131, S. aureus GC 1131
[5] = system: S. pneumoniae* GC 4465; test: MIC, broth microdilution; details: Streptococcus pneumoniae, S. pneumoniae* GC 4465
[6] = system: E. coli GC 2272; test: MIC, broth microdilution; details: Escherichia coli, GC2272, E. coli GC 2272
[7] = system: E. coli; test: Range of MIC for E. coli strains; details: Escherichia coli
[8] = system: E. faecalis GC 2242; test: MIC, broth microdilution; details: Enterococcus faecalis, GC2242, E. faecalis GC 2242
[9] = system: P. aeruginosa GC 2214; test: MIC, broth microdilution; details: Pseudomonas aeruginosa, GC2214, P. aeruginosa GC 2214
[10] = system: c. albicans GC 3066; test: MIC, broth microdilution
[11] = system: S. epidermidis GC 4935; test: MIC, broth microdilution; details: Staphylococcus epidermidis, GC4935, S. epidermidis GC 4935
[12] = system: E. coli GC 2236; test: MIC, broth microdilution; details: Escherichia coli, GC2236, E. coli GC 2236
[13] = system: S. aureus GC 4536; test: MIC, broth microdilution; details: Staphylococcus aureus, GC4536, S. aureus GC 4536
[14] = system: Staph. aureus Smith; test: In vivo activity (oral, iv; ED50) against Staph. aureus Smith in mice
Experimental: Representative examples of compounds of Formula I were tested for the oral efficacy using S. aureus Smith in mice.

[15] = system: S. pneumoniae+ GC 4465; test: MIC, broth microdilution; details: Streptococcus pneumoniae, S. pneumoniae+ GC 4465
[16] = system: Staph.; test: Range of MIC for Staph. strains, including MRSA; details: Staphylococcus aureus
[17] = system: E. faecalis GC 2267; test: MIC, broth microdilution; details: Enterococcus faecalis, GC2267, E. faecalis GC 2267
[18] = system: E. coli GC 2232; test: MIC, broth microdilution; details: Escherichia coli, GC2232, E. coli GC 2232
[19] = system: E. coli GC 2231; test: MIC, broth microdilution; details: Escherichia coli, GC2231, E. coli GC 2231
[20] = system: E. faecalis GC 2265; test: MIC, broth microdilution; details: Enterococcus faecalis, GC2265, E. faecalis GC 2265
[21] = 20 h, read-out: Range of MIC, E. coli (Mouse Serum)
[22] = read-out: Minimum inhibitory concentration (MIC), E. coli (mouse serum)
[23] = c. albicans GC 3066, Water pre-incubation
[24] = Staphylococcus aureus, in Mus musculus, po, read-out: ED50 Staph Smith SOD
[25] = iv, read-out: ED50 Staph Smith SIV
[26] = MRSA, read-out: Minimum inhibitory concentration (MIC), Staph. (mouse serum)
[27] = MRSA, read-out: Minimum inhibitory concentration (MIC), Staph. (water)
[28] = MRSA, read-out: Range of MIC, Staph (Mouse Serum)
[29] = MRSA, read-out: Range of MIC, Staph (Water)

## CCCCN(CC(=O)Nc1cc(N(C)C)c2c(c1O)C(=O)C1=C(O)[C@]3(O)C(=O)C(C(N)=O)=C(O)[C@@H](N(C)C)C3CC1C2)C(=O)OCOC(=O)c1ccc(C)cc1 (stereo partly drawn) [Example 3, ({[(2-{[(7S,10aS)-9-(aminocarbonyl)-4,7-bis(dimethylamino)-1,8,10a,11-tetrahydroxy-10,12-dioxo-5,5a,6,6a,7,10,10a,12-octahydrotetracen-2-yl]amino}-2-oxoethyl)(butyl)amino]carbonyl}oxy)methyl 4-methylbenzoate]
[1]; Mouse Serum pre-incubation
  MIC: 1 µg/mL (≈ 1.29 µM)
[1]; Water pre-incubation
  MIC: 4 µg/mL (≈ 5.14 µM)
[2]; Mouse Serum pre-incubation
  MIC: 1 µg/mL (≈ 1.29 µM)
[2]; Water pre-incubation
  MIC: 8 µg/mL (≈ 10.3 µM)
[3]; Mouse Serum pre-incubation
  MIC: 1 µg/mL (≈ 1.29 µM)
[3]; Water pre-incubation
  MIC: 4 µg/mL (≈ 5.14 µM)
[4]; Mouse Serum pre-incubation
  MIC: 2 µg/mL (≈ 2.57 µM)
[4]; Water pre-incubation
  MIC: 4 µg/mL (≈ 5.14 µM)
[5]; Mouse Serum pre-incubation
  MIC: 0.12 µg/mL (≈ 0.154 µM)
[5]; Water pre-incubation
  MIC: 0.25 µg/mL (≈ 0.321 µM)
[6]; Mouse Serum pre-incubation
  MIC: 1 µg/mL (≈ 1.29 µM)
[6]; Water pre-incubation
  MIC: > 64 µg/mL
[7]; [21]
  MIC: 1 to 2 µg/mL (≈ 1.29 to 2.57 µM)
[7]; [22]
  MIC: 1 to 2 µg/mL (≈ 1.29 to 2.57 µM)
[7]; read-out: Minimum inhibitory concentration (MIC), E. coli (water)
  MIC: > 64 µg/mL
[7]; read-out: Range of MIC, E. coli (Water)
  MIC: > 64 µg/mL
[8]; Mouse Serum pre-incubation
  MIC: 2 µg/mL (≈ 2.57 µM)
[8]; Water pre-incubation
  MIC: 16 µg/mL (≈ 20.6 µM)
[9]; Mouse Serum pre-incubation
  MIC: 32 µg/mL (≈ 41.1 µM)
[9]; Water pre-incubation
  MIC: > 64 µg/mL
[10]; Candida albicans, GC3066
  MIC: > 64 µg/mL
[10]; [23]
  MIC: >64 UG/ML
[11]; Mouse Serum pre-incubation
  MIC: 4 µg/mL (≈ 5.14 µM)
[11]; Water pre-incubation
  MIC: 8 µg/mL (≈ 10.3 µM)
[12]; Mouse Serum pre-incubation
  MIC: 1 µg/mL (≈ 1.29 µM)
[12]; Water pre-incubation
  MIC: > 64 µg/mL
[13]; Mouse Serum pre-incubation
  MIC: 2 µg/mL (≈ 2.57 µM)
[13]; Water pre-incubation
  MIC: 4 µg/mL (≈ 5.14 µM)
[14]; [24]
  ED50: 16.1 mg/kg
[14]; [25]
  ED50: 0.59 mg/kg
[15]; Mouse Serum pre-incubation
  MIC: 1 µg/mL (≈ 1.29 µM)
[15]; Water pre-incubation
  MIC: 2 µg/mL (≈ 2.57 µM)
[16]; [26]
  MIC: 1 to 4 µg/mL (≈ 1.29 to 5.14 µM)
[16]; [27]
  MIC: 4 to 32 µg/mL (≈ 5.14 to 41.1 µM)
[16]; [28]
  MIC: 1 to 4 µg/mL (≈ 1.29 to 5.14 µM)
[16]; [29]
  MIC: 4 to 32 µg/mL (≈ 5.14 to 41.1 µM)
[17]; Mouse Serum pre-incubation
  MIC: 2 µg/mL (≈ 2.57 µM)
[17]; Water pre-incubation
  MIC: 32 µg/mL (≈ 41.1 µM)
[18]; Mouse Serum pre-incubation
  MIC: 2 µg/mL (≈ 2.57 µM)
[18]; Water pre-incubation
  MIC: > 64 µg/mL
[19]; Mouse Serum pre-incubation
  MIC: 2 µg/mL (≈ 2.57 µM)
[19]; Water pre-incubation
  MIC: > 64 µg/mL
[20]; Mouse Serum pre-incubation
  MIC: 2 µg/mL (≈ 2.57 µM)
[20]; Water pre-incubation
  MIC: 32 µg/mL (≈ 41.1 µM)

## CCCCN(CC(=O)Nc1cc(N(C)C)c2c(c1O)C(=O)C1=C(O)[C@]3(O)C(=O)C(C(N)=O)=C(O)[C@@H](N(C)C)[C@@H]3C[C@@H]1C2)C(=O)OCOC(=O)c1ccc(F)cc1 [Example 4, ({[(2-{[(5aR,6aS,7S,10aS)-9-(aminocarbonyl)-4,7-bis(dimethylamino)-1,8,10a,11-tetrahydroxy-10,12-dioxo-5,5a,6,6a,7,10,10a,12-octahydrotetracen-2-yl]amino}-2-oxoethyl)(butyl)amino]carbonyl}oxy)methyl 4-fluorobenzoate]
[1]; Mouse Serum pre-incubation
  MIC: 0.5 µg/mL (≈ 0.64 µM)
[1]; Water pre-incubation
  MIC: 2 µg/mL (≈ 2.56 µM)
[2]; Mouse Serum pre-incubation
  MIC: 1 µg/mL (≈ 1.28 µM)
[2]; Water pre-incubation
  MIC: 8 µg/mL (≈ 10.2 µM)
[3]; Mouse Serum pre-incubation
  MIC: 0.5 µg/mL (≈ 0.64 µM)
[3]; Water pre-incubation
  MIC: 4 µg/mL (≈ 5.12 µM)
[4]; Mouse Serum pre-incubation
  MIC: 1 µg/mL (≈ 1.28 µM)
[4]; Water pre-incubation
  MIC: 4 µg/mL (≈ 5.12 µM)
[5]; Mouse Serum pre-incubation
  MIC: < 0.06 µg/mL
[5]; Water pre-incubation
  MIC: 0.12 µg/mL (≈ 0.153 µM)
[6]; Mouse Serum pre-incubation
  MIC: 1 µg/mL (≈ 1.28 µM)
[6]; Water pre-incubation
  MIC: 64 µg/mL (≈ 81.9 µM)
[7]; [21]
  MIC: 0.5 to 2 µg/mL (≈ 0.64 to 2.56 µM)
[7]; read-out: Minimum inhibitory concentration (MIC), E. coli (Human Serum)
  MIC: 8 to 32 µg/mL (≈ 10.2 to 40.9 µM)
[7]; [22]
  MIC: 0.5 to 2 µg/mL (≈ 0.64 to 2.56 µM)
[8]; Mouse Serum pre-incubation
  MIC: 1 µg/mL (≈ 1.28 µM)
[8]; Water pre-incubation
  MIC: 4 µg/mL (≈ 5.12 µM)
[9]; Mouse Serum pre-incubation
  MIC: 32 µg/mL (≈ 40.9 µM)
[9]; Water pre-incubation
  MIC: > 64 µg/mL
[10]; Candida albicans, GC3066
  MIC: > 64 µg/mL
[10]; [23]
  MIC: >64 UG/ML
[11]; Mouse Serum pre-incubation
  MIC: 2 µg/mL (≈ 2.56 µM)
[11]; Water pre-incubation
  MIC: 4 µg/mL (≈ 5.12 µM)
[12]; Mouse Serum pre-incubation
  MIC: 1 µg/mL (≈ 1.28 µM)
[12]; Water pre-incubation
  MIC: 64 µg/mL (≈ 81.9 µM)
[13]; Mouse Serum pre-incubation
  MIC: 1 µg/mL (≈ 1.28 µM)
[13]; Water pre-incubation
  MIC: 4 µg/mL (≈ 5.12 µM)
[14]; [24]
  ED50: 11.6 mg/kg
[14]; [25]
  ED50: 0.39 mg/kg
[15]; Mouse Serum pre-incubation
  MIC: 2 µg/mL (≈ 2.56 µM)
[15]; Water pre-incubation
  MIC: 4 µg/mL (≈ 5.12 µM)
[16]; [26]
  MIC: 0.5 to 2 µg/mL (≈ 0.64 to 2.56 µM)
[16]; [27]
  MIC: 2 to 16 µg/mL (≈ 2.56 to 20.5 µM)
[16]; [28]
  MIC: 0.5 to 2 µg/mL (≈ 0.64 to 2.56 µM)
[16]; [29]
  MIC: 2 to 16 µg/mL (≈ 2.56 to 20.5 µM)
[16]; read-out: Minimum inhibitory concentration (MIC), Staph (Human Serum)
  MIC: 0.5 to 4 µg/mL (≈ 0.64 to 5.12 µM)
[16]; read-out: Minimum inhibitory concentration (MIC), Staph (Water)
  MIC: 2 to 8 µg/mL (≈ 2.56 to 10.2 µM)
[17]; Mouse Serum pre-incubation
  MIC: 1 µg/mL (≈ 1.28 µM)
[17]; Water pre-incubation
  MIC: 8 µg/mL (≈ 10.2 µM)
[18]; Mouse Serum pre-incubation
  MIC: 1 µg/mL (≈ 1.28 µM)
[18]; Water pre-incubation
  MIC: 64 µg/mL (≈ 81.9 µM)
[19]; Mouse Serum pre-incubation
  MIC: 1 µg/mL (≈ 1.28 µM)
[19]; Water pre-incubation
  MIC: 64 µg/mL (≈ 81.9 µM)
[20]; Mouse Serum pre-incubation
  MIC: 2 µg/mL (≈ 2.56 µM)
[20]; Water pre-incubation
  MIC: 8 µg/mL (≈ 10.2 µM)
